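How tested: cells in 96-well plates exposed to compound for 48 hours at five concentrations. Here, GI50 denotes the concentration required for 50% inhibition of growth. At the TGI there is no net growth.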
Experiments:
Test in all cases: NCI tumour cell line growth inhibition, 48 h
786-0 renal = system: 786-0 renal
A498 renal = system: A498 renal
A549 NSCLC = system: A549 NSCLC
ACHN renal = system: ACHN renal
BT-549 breast = system: BT-549 breast
CAKI-1 renal = system: CAKI-1 renal
COLO 205 colon = system: COLO 205 colon
DU-145 prostate = system: DU-145 prostate
EKVX NSCLC = system: EKVX NSCLC
HCC-2998 colon = system: HCC-2998 colon
HCT-116 colon = system: HCT-116 colon
HCT-15 colon = system: HCT-15 colon
HL-60(TB) leukemia = system: HL-60(TB) leukemia
HOP-62 NSCLC = system: HOP-62 NSCLC
HS 578T breast = system: HS 578T breast
HT29 colon = system: HT29 colon
IGROV1 ovarian = system: IGROV1 ovarian
K-562 leukemia = system: K-562 leukemia
KM12 colon = system: KM12 colon
LOX IMVI melanoma = system: LOX IMVI melanoma
M14 melanoma = system: M14 melanoma
MALME-3M melanoma = system: MALME-3M melanoma
MCF7 breast = system: MCF7 breast
MDA-MB-231 breast = system: MDA-MB-231 breast
MDA-MB-435 = system: MDA-MB-435
MOLT-4 leukemia = system: MOLT-4 leukemia
NCI-H460 lung = system: NCI-H460 lung
NCI-H522 lung = system: NCI-H522 lung
NCI/ADR-RES ovarian = system: NCI/ADR-RES ovarian
OVCAR-3 ovarian = system: OVCAR-3 ovarian
OVCAR-4 ovarian = system: OVCAR-4 ovarian
OVCAR-5 ovarian = system: OVCAR-5 ovarian
OVCAR-8 ovarian = system: OVCAR-8 ovarian
PC-3 prostate = system: PC-3 prostate
RPMI-8226 leukemia = system: RPMI-8226 leukemia
RXF 393 renal = system: RXF 393 renal
SF-268 CNS = system: SF-268 CNS
SF-295 CNS = system: SF-295 CNS
SF-539 CNS = system: SF-539 CNS
SK-MEL-2 melanoma = system: SK-MEL-2 melanoma
SK-MEL-28 melanoma = system: SK-MEL-28 melanoma
SK-MEL-5 melanoma = system: SK-MEL-5 melanoma
SK-OV-3 ovarian = system: SK-OV-3 ovarian
SN12C renal = system: SN12C renal
SNB-19 CNS = system: SNB-19 CNS
SNB-75 CNS = system: SNB-75 CNS
SW-620 colon = system: SW-620 colon
T-47D breast = system: T-47D breast
TK-10 renal = system: TK-10 renal
U251 CNS = system: U251 CNS
UACC-62 melanoma = system: UACC-62 melanoma
UO-31 renal = system: UO-31 renal

## Fc1ccc(-c2ncn(C3CCNCC3)c2-c2ccnc(Oc3cccc(C(F)(F)F)c3)n2)cc1
786-0 renal
  GI50: 3.82 µM
  TGI: 7.49 µM
A498 renal
  GI50: 1.37 µM
  TGI: 6.91 µM
A549 NSCLC
  GI50: 4.23 µM
  TGI: 7.94 µM
ACHN renal
  GI50: 3.29 µM
  TGI: 6.47 µM
BT-549 breast
  GI50: 4.34 µM
  TGI: 9.51 µM
CAKI-1 renal
  GI50: 4.38 µM
  TGI: 9.12 µM
COLO 205 colon
  GI50: 3.83 µM
  TGI: 7.45 µM
DU-145 prostate
  GI50: 3.99 µM
  TGI: 7.37 µM
EKVX NSCLC
  GI50: 3.63 µM
  TGI: 8.3 µM
HCC-2998 colon
  GI50: 3.92 µM
  TGI: 8.35 µM
HCT-116 colon
  GI50: 3.65 µM
  TGI: 7.29 µM
HCT-15 colon
  GI50: 3.79 µM
  TGI: 7.25 µM
HL-60(TB) leukemia
  GI50: 4.58 µM
  TGI: 9.6 µM
HOP-62 NSCLC
  GI50: 3.75 µM
  TGI: 7.47 µM
HS 578T breast
  GI50: 1.98 µM
  TGI: 7.07 µM
HT29 colon
  GI50: 2.54 µM
  TGI: 5.54 µM
IGROV1 ovarian
  GI50: 3.67 µM
  TGI: 7.88 µM
K-562 leukemia
  GI50: 3.8 µM
  TGI: 9.12 µM
KM12 colon
  GI50: 3.93 µM
  TGI: 7.36 µM
LOX IMVI melanoma
  GI50: 8.96 µM
  TGI: 14.1 µM
M14 melanoma
  GI50: 4.54 µM
  TGI: 8.73 µM
MALME-3M melanoma
  GI50: 4.66 µM
  TGI: 10.1 µM
MCF7 breast
  GI50: 3.68 µM
  TGI: 7.3 µM
MDA-MB-231 breast
  GI50: 3.96 µM
  TGI: 7.56 µM
MDA-MB-435
  GI50: 3.99 µM
  TGI: 8.15 µM
MOLT-4 leukemia
  GI50: 4.15 µM
  TGI: 9.48 µM
NCI-H460 lung
  GI50: 3.82 µM
  TGI: 7.81 µM
NCI-H522 lung
  GI50: 4.03 µM
  TGI: 7.95 µM
NCI/ADR-RES ovarian
  GI50: 4.27 µM
  TGI: 9.03 µM
OVCAR-3 ovarian
  GI50: 3.88 µM
  TGI: 7.26 µM
OVCAR-4 ovarian
  GI50: 3.62 µM
  TGI: 7.26 µM
OVCAR-5 ovarian
  GI50: 3.21 µM
  TGI: 6.37 µM
OVCAR-8 ovarian
  GI50: 4.17 µM
  TGI: 8.58 µM
PC-3 prostate
  GI50: 3.7 µM
  TGI: 7.2 µM
RPMI-8226 leukemia
  GI50: 4.87 µM
  TGI: 11.7 µM
RXF 393 renal
  GI50: 2.66 µM
  TGI: 6.42 µM
SF-268 CNS
  GI50: 3.64 µM
  TGI: 7.37 µM
SF-295 CNS
  GI50: 3.92 µM
  TGI: 8.1 µM
SF-539 CNS
  GI50: 3.92 µM
  TGI: 7.68 µM
SK-MEL-2 melanoma
  GI50: 4.62 µM
  TGI: 8.84 µM
SK-MEL-28 melanoma
  GI50: 3.62 µM
  TGI: 6.93 µM
SK-MEL-5 melanoma
  GI50: 3.28 µM
  TGI: 6.5 µM
SK-OV-3 ovarian
  GI50: 3.82 µM
  TGI: 7.31 µM
SN12C renal
  GI50: 3.93 µM
  TGI: 7.47 µM
SNB-19 CNS
  GI50: 3.94 µM
  TGI: 7.67 µM
SNB-75 CNS
  GI50: 2.01 µM
  TGI: 6.52 µM
SW-620 colon
  GI50: 3.56 µM
  TGI: 7.03 µM
T-47D breast
  GI50: 2.93 µM
  TGI: 6.43 µM
TK-10 renal
  GI50: 3.68 µM
  TGI: 7.22 µM
U251 CNS
  GI50: 3.61 µM
  TGI: 7.08 µM
UACC-62 melanoma
  GI50: 4.05 µM
  TGI: 7.59 µM
UO-31 renal
  GI50: 2.8 µM
  TGI: 6.41 µM
